Laboratory results reported in patent US20050042701A1, “Anti-petasin antibodies, methods for the production thereof and their use” (priority 1998, published 2005).
Read-outs that look alike come from different tables or passages of the source.

Test: 1st phase clinical test: pharmacokinetics of petasin in serum after single oral administration of tablets containing butterbur extract (open crossover; enzyme immunoassay)
Assay type: in vivo, human (clinically healthy men)
Conditions: for concentration at 0.25 h: 0.25 h p.a.; for concentration at 0.5 h: 0.5 h p.a.; for concentration at 0.75 h: 0.75 h p.a.; for concentration at 1 h: 1 h p.a.; for concentration at 1.17 h: 1.17 h p.a. (1.167 in Table 3); for concentration at 1.5 h: 1.5 h p.a.; for concentration at 1.833 h: 1.833 h p.a.; for concentration at 2.167 h: 2.167 h p.a.; for concentration at 2.5 h: 2.5 h p.a.; for concentration at 3 h: 3 h p.a.; for concentration at 4 h: 4 h p.a.; for concentration at 5 h: 5 h p.a.; for concentration at 6 h: 6 h p.a.; for concentration at 8 h: 8 h p.a.; for concentration at 12 h: 12 h p.a.; for concentration at 24 h: 24 h p.a.; for Cmax / MRT / Tmax / half-life / AUC / AUC(0-t): single oral, mean ± SD; for AUC: read-out: AUC0-i; for AUC(0-t): read-out: AUC0-t(last)
Protocol: Petasin ovalbumin is adsorptively bound to polystyrene microtitration plates in a concentration of […] in 0.1 M carbonate buffer, pH=9.5, (100 μl/well) for 16 hours at 4° C. and thereupon sucked off. After washing it two times with 300 μl/well washing buffer (PBS, 0.1% Tween 20) it is blocked for 2 hours at room temperature with 150 μl/well blocking solution (0.6% gelatine, 0.02% […] in PBS) and subsequently washed three times with washing buffer.
50 μl of the serum sample to be tested or the respective standard (1:4 dilution in a sample buffer (PBS, 1% BSA, 0.1% Tween 20, 0.01% thiomersal) and 50 μL of an optimized anti-serum dilution in a sample buffer are simultaneously incubated with shaking for 1 hour at room temperature. Subsequently, the microtitration plate is washed three times with 300 μl/well of washing buffer and incubated for 30 min. at room temperature with 100 μl of anti-rabbit immunoglobulin peroxidase conjugate, diluted in sample buffer, and once more washed as above. Thereupon, it is incubated for 10 min. with 100 μl of a substrate solution ready for use (3.3′, 5.5′-tetramethyl benzidine) per well and the reaction is stopped by adding 100 μl/well of 0.5 M sulfuric acid. The evaluation is carried out at 450 nm in a microtitration plate reader.
In a 1st phase of the clinical test for determining the pharmacokinetic parameters of tablets containing butterbur extract was a single oral administrations of 2 or 4 tablets to 24 clinically healthy men at the age between 18 and 40 years.
The open, crossover test was chosen as method, single administration of each dose in a randomized order with an interval of at least 7 days between the administrations.
Model-independent pharmacokinetic parameters for petasin Statistical methods:
ANOVA, ANOVAlog, Wilcoxon-Mann-Whitney test, Wilcoxon-sign order test

[1] = male, human, serum, oral, 4 tablets, after administering 4 tablets, read-out: Petasin serum concentration Max.
[2] = male, human, serum, oral, 4 tablets, after administering 4 tablets, read-out: Petasin serum concentration Mean
[3] = male, human, serum, oral, 4 tablets, after administering 4 tablets, read-out: Petasin serum concentration Median
[4] = male, human, serum, oral, 4 tablets, after administering 4 tablets, read-out: Petasin serum concentration Min.

C=C(C)C1CC2(C)C(=CC1=O)CCC(OC(=O)/C(C)=C\C)C2C (stereo not drawn) [petasin]
concentration at 0 h (male, human, serum, oral, 4 tablets, after administering 4 tablets, 0 h p.a., read-out: Petasin serum concentration Min.): 0 ng/mL | concentration at 0.25 h [1]: 14.9 ng/mL | concentration at 0.25 h [2]: 4.2 ng/mL | concentration at 0.25 h [3]: 3.2 ng/mL | concentration at 0.25 h [4]: 1 ng/mL | concentration at 0.5 h [1]: 96.2 ng/mL | concentration at 0.5 h [2]: 21.2 ng/mL | concentration at 0.5 h [3]: 13.7 ng/mL | concentration at 0.5 h [4]: 1.3 ng/mL | concentration at 0.75 h [1]: 91.8 ng/mL | concentration at 0.75 h [2]: 28.7 ng/mL | concentration at 0.75 h [3]: 23 ng/mL | concentration at 0.75 h [4]: 2.5 ng/mL | concentration at 1 h [1]: 100 ng/mL | concentration at 1 h [2]: 36.6 ng/mL | concentration at 1 h [3]: 38.1 ng/mL | concentration at 1 h [4]: 7.8 ng/mL | concentration at 1.17 h [1]: 100 ng/mL | concentration at 1.17 h [2]: 47.3 ng/mL | concentration at 1.17 h [3]: 43.6 ng/mL | concentration at 1.17 h [4]: 7.5 ng/mL | concentration at 1.5 h [1]: 90.7 ng/mL | concentration at 1.5 h [2]: 40.8 ng/mL | concentration at 1.5 h [3]: 32.4 ng/mL | concentration at 1.5 h [4]: 12.2 ng/mL | concentration at 1.833 h [1]: 100 ng/mL | concentration at 1.833 h [2]: 32 ng/mL | concentration at 1.833 h [3]: 26.8 ng/mL | concentration at 1.833 h [4]: 13.8 ng/mL | concentration at 2.167 h [1]: 76.1 ng/mL | concentration at 2.167 h [2]: 28.9 ng/mL | concentration at 2.167 h [3]: 27.5 ng/mL | concentration at 2.167 h [4]: 11.4 ng/mL | concentration at 2.5 h [1]: 40.9 ng/mL | concentration at 2.5 h [2]: 24.3 ng/mL | concentration at 2.5 h [3]: 26.1 ng/mL | concentration at 2.5 h [4]: 8.4 ng/mL | concentration at 3 h [1]: 49 ng/mL | concentration at 3 h [2]: 17.9 ng/mL | concentration at 3 h [3]: 14.6 ng/mL | concentration at 3 h [4]: 7.2 ng/mL | concentration at 4 h [1]: 20.8 ng/mL | concentration at 4 h [2]: 9.5 ng/mL | concentration at 4 h [3]: 8.1 ng/mL | concentration at 4 h [4]: 2.9 ng/mL | concentration at 5 h [1]: 81.4 ng/mL | concentration at 5 h [2]: 12.4 ng/mL | concentration at 5 h [3]: 7.3 ng/mL | concentration at 5 h [4]: 3.2 ng/mL | concentration at 6 h [1]: 14.7 ng/mL | concentration at 6 h [2]: 5.8 ng/mL | concentration at 6 h [3]: 5 ng/mL | concentration at 6 h [4]: 1.6 ng/mL | concentration at 8 h [1]: 15.7 ng/mL | concentration at 8 h [2]: 3.9 ng/mL | concentration at 8 h [3]: 3.1 ng/mL | concentration at 8 h [4]: 1.4 ng/mL | concentration at 12 h [1]: 5.1 ng/mL | concentration at 12 h [2]: 2.7 ng/mL | concentration at 12 h [3]: 2.5 ng/mL | concentration at 12 h [4]: 1.3 ng/mL | concentration at 24 h [1]: 2.3 ng/mL | concentration at 24 h [2]: 1.3 ng/mL | concentration at 24 h [3]: 1 ng/mL | concentration at 24 h [4]: 1 ng/mL | Cmax (male, human, serum, 2 tablets): 25.5 ± 14.8 ng/mL | MRT (male, human, serum, 2 tablets): 7.32 ± 3.74 h | Tmax (male, human, serum, 2 tablets): 1.62 ± 0.499 h | half-life (male, human, serum, 2 tablets): 7.16 ± 4.61 h | AUC (male, human, serum, 2 tablets): 79.7 ± 42.3 ng·h/mL | AUC(0-t) (male, human, serum, 2 tablets): 65.3 ± 35.6 ng·h/mL | Cmax (male, human, serum, 4 tablets): 58.1 ± 26.7 ng/mL | MRT (male, human, serum, 4 tablets): 6.74 ± 2.47 h | Tmax (male, human, serum, 4 tablets): 1.61 ± 0.926 h | half-life (male, human, serum, 4 tablets): 7.62 ± 3.34 h | AUC (male, human, serum, 4 tablets): 168 ± 73.4 ng·h/mL | AUC(0-t) (male, human, serum, 4 tablets): 151 ± 68.2 ng·h/mL | Resorption (single oral administration of 2 or 4 tablets): takes quickly place depending on the dose
